Measured values from US10526343B2, “Heterocyclic systems and pharmaceutical applications thereof” (University of Sharjah, priority 2018, dated 2020).
Converted amounts (≈) assume the structure as drawn.

Experiments:
MRSA-1 = assay: Time-kill study; type: cell-based, Staphylococcus aureus
Method: Time-kill study: Compound 1o was tested for the time required to kill the bacterial strain MRSA-1. A time-kill assay was performed by the broth micro-dilution method in accordance with the CLSI guidelines. Inoculum suspensions with approximately 5×10^5 CFU/mL of exponentially growing bacterial cells were incubated in each well of a 96-well plate. […] Aliquots of 20 μL were removed from the inoculum culture after timed intervals of incubation (i.e. 0, 30 minutes, 1, 2, 4, 6, 8, and 24 hours), and serial 10-fold dilutions were prepared in 0.85% sodium chloride solution. Then, 10-100 μL of each dilution (as appropriate) were spread on the surface of Mueller-Hinton agar plates and incubated at 37° C. for 24 hours. Plate count technique was used to determine the number of viable cells for each time point. The experiments were performed in triplicate. Meropenem and ciprofloxacin were used as quality control antibiotics.

[1] = system: UDH-4 (environmental isolate, S. saprophyticus); assay: MIC by broth microdilution; type: cell-based; settings: Staphylococcus saprophyticus
Method: (§1) Bacteria of the genus Staphylococcus were selected for MIC investigation due to its clinical importance. Compounds showing activity against S. aureus (ATCC 25923) were tested against 10 multidrug-resistant strains of Staphylococcus species, including: clinical isolates methicillin-resistant Staphylococcus aureus (MRSA) strains MRSA-1, MRSA-2, and MRSA-3, and environmental isolates S. saprophyticus (strains UDH-1, UDH-2, UDH-3 and UDH-4), S. haemolyticus (strains UDH-6 and UDH-7), and S. epidermidis strain UDH-5.
(§2) All these strains were resistant to at least three antibiotics from different classes, as confirmed by a disk diffusion assay.
(§3) A broth microdilution method was used to measure MIC according to the Clinical and Laboratory Standards Institute guidelines. Two-fold serial dilutions of the test compound (8 concentrations ranged between 100-0.78 μg/mL) were tested. Two reference antibiotics were used as quality controls (ciprofloxacin and amikacin). In each experiment, solvent (DMSO) was used as a negative control, un-treated control (composing of bacteria in Mueller-Hinton broth) was used as a growth control, blank (culture media alone) was used as sterility control. The 96-well microplate with the test compounds was incubated for 20 hours at 37° C. Turbidity in wells indicated bacterial growth. […] For the definite determination of MIC, CellTiter-Blue® Cell Viability Assay (Promega, USA) was used (as above). The MIC was defined as the lowest compound concentration that prevented the color change of the Cell Viability solution (absence of bacterial growth; thus, suspension remained blue in color). For the definite determination of MIC, CellTiter-Blue® Cell Viability Assay (Promega, USA) was used (as above). To each well of the 96-well microplate, 20 μL of the Cell Viability Assay solution was added to the overnight (20 hours culture) and incubated at 37° C. for 4 hours. After the end of the incubation, pink and blue colors were used to differentiate viable from dead bacterial suspensions, respectively. The MIC was defined as the lowest compound concentration that prevented the color change.

[2] = system: UDH-2 (environmental isolate, S. saprophyticus); assay: MIC by broth microdilution; type: cell-based; settings: Staphylococcus saprophyticus
Method: as §1, §2, §3

[3] = system: UDH-3 (environmental isolate, S. saprophyticus); assay: MIC by broth microdilution; type: cell-based; settings: for MIC: Staphylococcus saprophyticus, environmental isolate; for times lower than MIC of ciprofloxacin: UDH-3
Method: as §1, §2, §3

[4] = system: UDH-6 (environmental isolate, S. haemolyticus); assay: MIC by broth microdilution; type: cell-based; settings: for MIC: Staphylococcus haemolyticus, environmental isolate
Method: as §1, §2, §3

[5] = system: UDH-1 (environmental isolate, S. saprophyticus); assay: MIC by broth microdilution; type: cell-based; settings: for MIC: Staphylococcus saprophyticus, environmental isolate; for times lower than MIC of ciprofloxacin: UDH-1
Method: as §1, §2, §3

[6] = system: UDH-5 (environmental isolate, S. epidermidis); assay: MIC by broth microdilution; type: cell-based; settings: Staphylococcus epidermidis
Method: as §1, §2, §3

[7] = system: UDH-7 (environmental isolate, S. haemolyticus); assay: MIC by broth microdilution; type: cell-based; settings: for MIC: Staphylococcus haemolyticus, environmental isolate
Method: as §1, §2, §3

S. aureus (ATCC 25923) = assay: MIC by broth microdilution; type: cell-based; settings: Staphylococcus aureus, ATCC25923
Method: as §1, §3

[8] = system: Bacillus subtilis (environmental isolate); assay: Cell viability assay (resazurin) screening for antibacterial activity; type: cell-based; design: key: Positive: A positive result indicates antibacterial activity expressed as growth inhibition; Negative: a negative result indicates no antibacterial activity expressed as bacterial growth at the tested concentration; settings: single high concentration of 1 mg/mL
[9] = system: Pseudomonas aeruginosa (ATCC 27853); assay: as above; type: cell-based; design: key: Positive: A positive result indicates antibacterial activity expressed as growth inhibition; Negative: a negative result indicates no antibacterial activity expressed as bacterial growth at the tested concentration; settings: single high concentration of 1 mg/mL
[10] = system: MRSA-3 (clinical isolate, methicillin-resistant Staphylococcus aureus); assay: MIC by broth microdilution; type: cell-based
Method: (§4) Bacteria of the genus Staphylococcus were selected for MIC investigation due to its clinical importance.
as §3, with “Two reference antibiotics were used as quality controls (ciprofloxacin and amikacin).” left out

[11] = system: MRSA-2 (clinical isolate, methicillin-resistant Staphylococcus aureus); assay: MIC by broth microdilution; type: cell-based
Method: as §4
as §3, with “Two reference antibiotics were used as quality controls (ciprofloxacin and amikacin).” left out

[12] = system: MRSA-1 (clinical isolate, methicillin-resistant Staphylococcus aureus); assay: MIC by broth microdilution; type: cell-based; settings: for MIC: Staphylococcus aureus, MRSA, clinical isolate
Method: as §4
as §3, with “Two reference antibiotics were used as quality controls (ciprofloxacin and amikacin).” left out

[13] = system: Enterococcus faecalis (ATCC 29212); assay: Cell viability assay (resazurin) screening for antibacterial activity; type: cell-based; design: key: Positive: A positive result indicates antibacterial activity expressed as growth inhibition; Negative: a negative result indicates no antibacterial activity expressed as bacterial growth at the tested concentration; settings: single high concentration of 1 mg/mL
[14] = system: Staphylococcus aureus (ATCC 25923); assay: as above; type: cell-based; design: key: Positive: A positive result indicates antibacterial activity expressed as growth inhibition; Negative: a negative result indicates no antibacterial activity expressed as bacterial growth at the tested concentration; settings: single high concentration of 1 mg/mL
[15] = system: Escherichia coli (ATCC 25922); assay: as above; type: cell-based; design: key: Positive: A positive result indicates antibacterial activity expressed as growth inhibition; Negative: a negative result indicates no antibacterial activity expressed as bacterial growth at the tested concentration; settings: single high concentration of 1 mg/mL

| SMILES | MIC [1] | MIC [2] | MIC [3] | MIC [5] | MIC [6] | MIC (S. aureus (ATCC 25923)) | MIC [10] | MIC [11] | MIC [12] | MIC [4] | MIC [7] | antibacterial activity, Bacillus subtilis [8] | antibacterial activity, Pseudomonas aeruginosa [9] | antibacterial activity, Enterococcus faecalis [13] | antibacterial activity, Staphylococcus aureus [14] | antibacterial activity, Escherichia coli [15] | other results |
| --- | --- | --- | --- | --- | --- | --- | --- | --- | --- | --- | --- | --- | --- | --- | --- | --- | --- |
| O=C(O)c1cn(C2CC2)c2cc(N3CCNCC3)c(F)cc2c1=O [Ciprofloxacin, ciprofloxacin, reference compound] | 64 µg/mL (≈ 193 µM) | 64 µg/mL (≈ 193 µM) | 64 µg/mL (≈ 193 µM) | 64 µg/mL (≈ 193 µM) | < 0.25 µg/mL | 0.5 µg/mL (≈ 1.51 µM) | – | – | – | 64 µg/mL (≈ 193 µM) | 64 µg/mL (≈ 193 µM) | – | – | – | – | – | time of exposure at which killing was achieved (complete growth inhibition) (MRSA-1; 32-256 μg/mL): 24 h |
| COC(=O)CC1COc2c(cc3c4c2CCCN4CCC3)-c2c(NC(C)(C)C)n3c(-c4cccc5c4OCO5)c(C)sc3[n+]21 (centres unmarked) [Compound 1u] | 6.25 µg/mL | 6.25 µg/mL | 3.12 µg/mL | 6.25 µg/mL | 1.56 µg/mL | 3.12 µg/mL | 3.12 µg/mL | 3.12 µg/mL | 3.12 µg/mL | 6.25 µg/mL | 6.25 µg/mL | Positive | Negative | Positive | Positive | Negative | times lower than MIC of ciprofloxacin [3]: approximately 20 times; times lower than MIC of ciprofloxacin ([4]; UDH-6): approximately 10 times; times lower than MIC of ciprofloxacin [5]: approximately 10 times; times lower than MIC of ciprofloxacin ([7]; UDH-7): approximately 10 times; times lower than the MIC of ciprofloxacin ([12]; MRSA-1): approximately 10 times |
| COC(=O)CC1COc2c(cc3c4c2CCCN4CCC3)-c2c(NC(C)(C)C)n3c4ccc(Br)cc4sc3[n+]21 (centres unmarked) [Compound 1v] | 25 µg/mL | 25 µg/mL | 12.5 µg/mL | 12.5 µg/mL | 6.25 µg/mL | 12.5 µg/mL | 12.5 µg/mL | 12.5 µg/mL | 12.5 µg/mL | 50 µg/mL | 50 µg/mL | Positive | Negative | Positive | Positive | Negative | – |
| COC(=O)CC1COc2c(cc3c4c2CCCN4CCC3)-c2c(NC(C)(C)C)n3c(-c4ccc(NC(C)=O)cc4)csc3[n+]21 (centres unmarked) [Compound 1w] | 12.5 µg/mL | 25 µg/mL | 12.5 µg/mL | 12.5 µg/mL | 6.25 µg/mL | 6.25 µg/mL | 12.5 µg/mL | 12.5 µg/mL | 12.5 µg/mL | 50 µg/mL | 50 µg/mL | Positive | Negative | Positive | Positive | Negative | – |
| COC(=O)CC1COc2c(cc3c4c2CCCN4CCC3)-c2c(NC(C)(C)C)n3c(-c4ccc(OC)cc4)c(-c4ccc(OC)cc4)sc3[n+]21 (centres unmarked) [Compound 1z] | 3.12 µg/mL | 6.25 µg/mL | 12.5 µg/mL | 12.5 µg/mL | 1.56 µg/mL | 3.12 µg/mL | 6.25 µg/mL | 6.25 µg/mL | 6.25 µg/mL | 12.5 µg/mL | 12.5 µg/mL | Positive | Negative | Positive | Positive | Negative | – |
| C[C@@H](O)[C@H]1C(=O)N2C(C(=O)O)=C(S[C@@H]3CN[C@H](C(=O)N(C)C)C3)[C@H](C)[C@H]12 [meropenem, reference compound] | – | – | – | – | – | – | – | – | – | – | – | – | – | – | – | – | time of exposure at which killing was achieved (MRSA-1; 8 μg/mL): 8 h; time of exposure at which killing was achieved (MRSA-1; 16 μg/mL): 6 h; time of exposure at which killing was achieved (MRSA-1; 2-4 μg/mL): 24 h; time of exposure at which killing was achieved (complete inhibition of bacterial growth) (MRSA-1; 32-64 μg/mL): 4 h |

Now from value to compound, other results behind:

| MIC [1] | MIC [2] | MIC [3] | MIC [5] | MIC [6] | MIC (S. aureus (ATCC 25923)) | MIC [10] | MIC [11] | MIC [12] | SMILES | MIC [4] | MIC [7] | antibacterial activity, Bacillus subtilis [8] | antibacterial activity, Pseudomonas aeruginosa [9] | antibacterial activity, Enterococcus faecalis [13] | antibacterial activity, Staphylococcus aureus [14] | antibacterial activity, Escherichia coli [15] | other results |
| --- | --- | --- | --- | --- | --- | --- | --- | --- | --- | --- | --- | --- | --- | --- | --- | --- | --- |
| 6.25 µg/mL | 6.25 µg/mL | 3.12 µg/mL | 6.25 µg/mL | 1.56 µg/mL | 6.25 µg/mL | 3.12 µg/mL | 3.12 µg/mL | 6.25 µg/mL | COC(=O)CC1COc2c(cc3c4c2CCCN4CCC3)-c2c(NC(C)(C)C)n3c(-c4ccccc4)c(-c4ccccc4)sc3[n+]21 (centres unmarked) [Compound 2a] | 6.25 µg/mL | 12.5 µg/mL | Positive | Negative | Positive | positive antibacterial activities | Negative | times lower than MIC of ciprofloxacin [3]: approximately 20 times; times lower than MIC of ciprofloxacin [5]: approximately 10 times |
| 12.5 µg/mL | 12.5 µg/mL | 25 µg/mL | 12.5 µg/mL | 6.25 µg/mL | 12.5 µg/mL | 12.5 µg/mL | 12.5 µg/mL | 12.5 µg/mL | COC(=O)CC1COc2c(cc3c4c2CCCN4CCC3)-c2c(N)n3c(-c4ccc(F)cc4)c(C)sc3[n+]21 (centres unmarked) [Compound 2b] | 25 µg/mL | 25 µg/mL | Positive | Negative | Positive | Positive | Negative | – |
